Reference: patent publication US20170190671A1, “BIS(ARYL)CATECHOL DERIVATIVES AS HERBICIDES” (E I DU PONT DE NEMOURS AND COMPANY, priority 2014, published 2017)

What was measured:
Type in all cases: in vivo
[1] = test system: velvetleaf (Abutilon theophrasti); assay: Test C preemergence; details: Abutilon theophrasti, pre-emergence, scale 0 to 100, read-out: Plant response rating, Velvetleaf
Method in brief: (§1)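 Treatment is preemergence to seeds in a loam and sand soil, or postemergence to plants 2 to 18 cm high in a peat moss-based medium. The compound is delivered in a non-phytotoxic solvent mixture including surfactant. Effects are judged by eye 13 to 15 days later on a 0 to 100 scale.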

[2] = test system: johnsongrass (Sorghum halepense); assay: Test C preemergence; details: Sorghum halepense, pre-emergence, 336 h, scale 0 to 100, read-out: Plant response rating, Johnsongrass
Method in brief: as §1

[3] = test system: Italian ryegrass (Lolium multiflorum); assay: Test C preemergence; details: Lolium multiflorum, pre-emergence, 336 h, scale 0 to 100, read-out: Plant response rating, Ryegrass, Italian
Method in brief: as §1

[4] = test system: oilseed rape (Brassica napus); assay: Test C preemergence; details: Brassica napus, pre-emergence, scale 0 to 100, read-out: Plant response rating, Oilseed Rape
Method in brief: as §1

corn (Zea mays) = assay: Test C preemergence; details: Zea mays, pre-emergence, 336 h, scale 0 to 100
Method in brief: as §1

[5] = test system: morningglory (Ipomoea coccinea); assay: Test C preemergence; details: Ipomoea, pre-emergence, 336 h, scale 0 to 100, read-out: Plant response rating, Morningglory
Method in brief: as §1

[6] = test system: giant foxtail (Setaria faberii); assay: Test C preemergence; details: Setaria faberi, pre-emergence, 336 h, scale 0 to 100, read-out: Plant response rating, Foxtail, Giant
Method in brief: as §1

[7] = test system: barnyardgrass (Echinochloa crus-galli); assay: Test C preemergence; details: Echinochloa crus-galli, pre-emergence, read-out: Plant response rating, Barnyardgrass
Method in brief: as §1

[8] = test system: waterhemp (common waterhemp, Amaranthus rudis); assay: Test C preemergence; details: Amaranthus tuberculatus, pre-emergence, scale 0 to 100, read-out: Plant response rating, Waterhemp
Method in brief: as §1

[9] = test system: ragweed (common ragweed, Ambrosia elatior); assay: Test C preemergence; details: Ambrosia artemisiifolia, pre-emergence, 336 h, scale 0 to 100, read-out: Plant response rating, Ragweed
Method in brief: as §1

soybean (Glycine max) = assay: Test C preemergence; details: Glycine max, pre-emergence, scale 0 to 100, read-out: Plant response rating, Soybean
Method in brief: as §1

[10] = test system: large (Lg) crabgrass (Digitaria sanguinalis); assay: Test C preemergence; details: Digitaria sanguinalis, pre-emergence, 336 h, scale 0 to 100, read-out: Plant response rating, Crabgrass, Large
Method in brief: as §1

[11] = test system: winter wheat (Triticum aestivum); assay: Test C preemergence; details: Triticum aestivum, pre-emergence, 336 h, scale 0 to 100, read-out: Plant response rating, Wheat
Method in brief: as §1

[12] = test system: blackgrass (Alopecurus myosuroides); assay: Test C preemergence; details: Alopecurus myosuroides, pre-emergence, 336 h, scale 0 to 100, read-out: Plant response rating, Blackgrass
Method in brief: as §1

[13] = test system: pigweed (Amaranthus retroflexus); assay: Test C preemergence; details: Amaranthus retroflexus, pre-emergence, 336 h, scale 0 to 100, read-out: Plant response rating, Pigweed
Method in brief: as §1

[14] = test system: yellow nutsedge (Cyperus esculentus); assay: Test C postemergence; details: Cyperus, post-emergence, 336 h, Postemergence, scale 0 to 100, read-out: Plant response rating, Nutsedge, Yellow
Method in brief: as §1

[15] = test system: galium (catchweed bedstraw, Galium aparine); assay: Test C postemergence; details: Galium, post-emergence, 336 h, Postemergence, scale 0 to 100, read-out: Plant response rating, Galium
Method in brief: as §1

wild oat (Avena fatua) = assay: Test C postemergence; details: Avena fatua, post-emergence, Postemergence, scale 0 to 100, read-out: Plant response rating, Oat, Wild
Method in brief: as §1

[16] = test system: chickweed (common chickweed, Stellaria media); assay: Test C postemergence; details: Stellaria media, post-emergence, Postemergence, scale 0 to 100, read-out: Plant response rating, Chickweed
Method in brief: as §1

[17] = test system: waterhemp (common waterhemp, Amaranthus rudis); assay: Test C postemergence; details: Amaranthus tuberculatus, post-emergence, Postemergence, scale 0 to 100, read-out: Plant response rating, Waterhemp
Method in brief: as §1

[18] = test system: pigweed (Amaranthus retroflexus); assay: Test C postemergence; details: Amaranthus retroflexus, post-emergence, 336 h, Postemergence, scale 0 to 100, read-out: Plant response rating, Pigweed
Method in brief: as §1

kochia (Kochia scoparia) = assay: Test C postemergence; details: Bassia scoparia, post-emergence, Postemergence, scale 0 to 100, read-out: Plant response rating, Kochia
Method in brief: as §1

`Fc1cccc(Oc2ncc(Cl)cn2)c1Oc1ncc(Cl)cn1` [Compound 21, 2,2′-[[3-fluoro-1,2-phenylene]bis(oxy)]bis[5-chloropyrimidine]] showed a pest or weed control at 31 g/ha ([1]; 31 g ai/ha, preemergence) of 100%, a pest or weed control at 62 g/ha ([1]; 62 g ai/ha, preemergence) of 100% and a pest or weed control at 125 g/ha ([1]; 125 g ai/ha, preemergence) of 100%. The pest or weed control at 16 g/ha ([1]; Preemergence, 16 g ai/ha) was 100%, the pest or weed control at 31 g/ha ([2]; 31 g ai/ha, preemergence) was 50% and the pest or weed control at 62 g/ha ([2]; 62 g ai/ha, preemergence) was 85%. The pest or weed control at 125 g/ha ([2]; 125 g ai/ha, preemergence) was 98%, the pest or weed control at 16 g/ha ([2]; Preemergence, 16 g ai/ha) was 5% and the pest or weed control at 31 g/ha ([3]; 31 g ai/ha, preemergence) was 50%. For the same compound, the pest or weed control at 62 g/ha ([3]; 62 g ai/ha, preemergence) was 85%, the pest or weed control at 125 g/ha ([3]; 125 g ai/ha, preemergence) was 90% and the pest or weed control at 16 g/ha ([3]; Preemergence, 16 g ai/ha) was 10%. For the same compound, the plant injury at 31 g/ha ([4]; 31 g ai/ha, preemergence) was 100%, the plant injury at 62 g/ha ([4]; 62 g ai/ha, preemergence) was 100% and the plant injury at 125 g/ha ([4]; 125 g ai/ha, preemergence) was 100%. For the same compound, the plant injury at 16 g/ha ([4]; Preemergence, 16 g ai/ha) was 98%, the Corn plant response rating (crop injury, 0 = no effect, 100 = complete kill) at 31 g/ha (corn (Zea mays); 31 g ai/ha, preemergence) was 25% and the Corn plant response rating (crop injury, 0 = no effect, 100 = complete kill) at 62 g/ha (corn (Zea mays); 62 g ai/ha, preemergence) was 45%. For the same compound, the Corn plant response rating (crop injury, 0 = no effect, 100 = complete kill) at 125 g/ha (corn (Zea mays); 125 g ai/ha, preemergence) was 98%, the Corn plant response rating (crop injury, 0 = no effect, 100 = complete kill) at 16 g/ha (corn (Zea mays); Preemergence, 16 g ai/ha) was 5% and the pest or weed control at 31 g/ha ([5]; 31 g ai/ha, preemergence) was 80%. It also gave a pest or weed control at 62 g/ha ([5]; 62 g ai/ha, preemergence) of 85%, a pest or weed control at 125 g/ha ([5]; 125 g ai/ha, preemergence) of 98% and a pest or weed control at 16 g/ha ([5]; Preemergence, 16 g ai/ha) of 70%. It also gave a pest or weed control at 31 g/ha ([6]; 31 g ai/ha, preemergence) of 100%, a pest or weed control at 62 g/ha ([6]; 62 g ai/ha, preemergence) of 100% and a pest or weed control at 125 g/ha ([6]; 125 g ai/ha, preemergence) of 100%. The pest or weed control at 16 g/ha ([6]; Preemergence, 16 g ai/ha) was 90%, the pest or weed control at 31 g/ha ([7]; 31 g ai/ha, preemergence, scale 0 to 100) was 85% and the pest or weed control at 62 g/ha ([7]; 62 g ai/ha, preemergence, scale 0 to 100) was 100%. For the same compound, the pest or weed control at 125 g/ha ([7]; 125 g ai/ha, preemergence, scale 0 to 100) was 100%, the pest or weed control at 16 g/ha ([7]; Preemergence, 16 g ai/ha, scale 0 to 100 (0 no effect, 100 complete control)) was 35% and the pest or weed control at 31 g/ha ([8]; 31 g ai/ha, preemergence) was 100%. For the same compound, the pest or weed control at 62 g/ha ([8]; 62 g ai/ha, preemergence) was 100%, the pest or weed control at 125 g/ha ([8]; 125 g ai/ha, preemergence) was 100% and the pest or weed control at 16 g/ha ([8]; Preemergence, 16 g ai/ha) was 100%. The pest or weed control at 31 g/ha ([9]; 31 g ai/ha, preemergence) was 85%, the pest or weed control at 62 g/ha ([9]; 62 g ai/ha, preemergence) was 85% and the pest or weed control at 125 g/ha ([9]; 125 g ai/ha, preemergence) was 85%. It also gave a pest or weed control at 16 g/ha ([9]; Preemergence, 16 g ai/ha) of 65%, a plant injury at 31 g/ha (soybean (Glycine max); 31 g ai/ha, preemergence) of 90% and a plant injury at 62 g/ha (soybean (Glycine max); 62 g ai/ha, preemergence) of 95%. For the same compound, the plant injury at 125 g/ha (soybean (Glycine max); 125 g ai/ha, preemergence) was 98%, the plant injury at 16 g/ha (soybean (Glycine max); Preemergence, 16 g ai/ha) was 85% and the pest or weed control at 31 g/ha ([10]; 31 g ai/ha, preemergence) was 100%. The pest or weed control at 62 g/ha ([10]; 62 g ai/ha, preemergence) was 100%, the pest or weed control at 125 g/ha ([10]; 125 g ai/ha, preemergence) was 100% and the pest or weed control at 16 g/ha ([10]; Preemergence, 16 g ai/ha) was 98%. It also gave a plant injury at 31 g/ha ([11]; 31 g ai/ha, preemergence) of 40%, a plant injury at 62 g/ha ([11]; 62 g ai/ha, preemergence) of 50% and a plant injury at 125 g/ha ([11]; 125 g ai/ha, preemergence) of 90%. The plant injury at 16 g/ha ([11]; Preemergence, 16 g ai/ha) was 0%, the pest or weed control at 31 g/ha ([12]; 31 g ai/ha, preemergence) was 30% and the pest or weed control at 62 g/ha ([12]; 62 g ai/ha, preemergence) was 90%. It also gave a pest or weed control at 125 g/ha ([12]; 125 g ai/ha, preemergence) of 90%, a pest or weed control at 16 g/ha ([12]; Preemergence, 16 g ai/ha) of 30% and a pest or weed control at 31 g/ha ([13]; 31 g ai/ha, preemergence) of 100%. For the same compound, the pest or weed control at 62 g/ha ([13]; 62 g ai/ha, preemergence) was 100%, the pest or weed control at 125 g/ha ([13]; 125 g ai/ha, preemergence) was 100% and the pest or weed control at 16 g/ha ([13]; Preemergence, 16 g ai/ha) was 100%. It also gave a pest or weed control at 31 g/ha ([14]; 31 g ai/ha) of 5%, a pest or weed control at 62 g/ha ([14]; 62 g ai/ha) of 5% and a pest or weed control at 125 g/ha ([14]; 125 g ai/ha) of 5%. For the same compound, the pest or weed control at 16 g/ha ([15]; 16 g ai/ha) was 70%, the pest or weed control at 31 g/ha ([15]; 31 g ai/ha) was 80% and the pest or weed control at 62 g/ha ([15]; 62 g ai/ha) was 85%. For the same compound, the pest or weed control at 125 g/ha ([15]; 125 g ai/ha) was 90%, the pest or weed control at 31 g/ha (wild oat (Avena fatua); 31 g ai/ha) was 0% and the pest or weed control at 62 g/ha (wild oat (Avena fatua); 62 g ai/ha) was 0%. The pest or weed control at 125 g/ha (wild oat (Avena fatua); 125 g ai/ha) was 40%, the pest or weed control at 16 g/ha ([16]; 16 g ai/ha) was 50% and the pest or weed control at 31 g/ha ([16]; 31 g ai/ha) was 50%. The pest or weed control at 62 g/ha ([16]; 62 g ai/ha) was 60%, the pest or weed control at 125 g/ha ([16]; 125 g ai/ha) was 100% and the pest or weed control at 31 g/ha ([17]; 31 g ai/ha) was 60%. It also gave a pest or weed control at 62 g/ha ([17]; 62 g ai/ha) of 50%, a pest or weed control at 125 g/ha ([17]; 125 g ai/ha) of 65% and a pest or weed control at 31 g/ha ([18]; 31 g ai/ha) of 75%. It also gave a pest or weed control at 62 g/ha ([18]; 62 g ai/ha) of 85%, a pest or weed control at 125 g/ha ([18]; 125 g ai/ha) of 95% and a pest or weed control at 16 g/ha (kochia (Kochia scoparia); 16 g ai/ha) of 85%. The pest or weed control at 31 g/ha (kochia (Kochia scoparia); 31 g ai/ha) was 90%, the pest or weed control at 62 g/ha (kochia (Kochia scoparia); 62 g ai/ha) was 90% and the pest or weed control at 125 g/ha (kochia (Kochia scoparia); 125 g ai/ha) was 98%.
